According to patent US9969698B2, “Quinoxalinyl-piperazinamide methods of use” (REXAHN PHARMACEUTICALS, INC., priority 2015, dated 2018):
Marks after values point to notes of the source that are not given here.

What was measured:
CYP3A4 = CYP3A4 (Homo sapiens, UniProt P08684); assay: Loss of RX-5902 after incubation with expressed CYP450 isozyme; format: in vitro ADME; settings: 30-minute incubation with expressed CYP3A4
Experimental: (§1) Two in vitro studies were performed to examine the involvement of specific cytochrome P450 (CYP450) isozymes in the in vitro metabolism of RX-5902. In the first study, the loss of RX-5902 was measured after incubation with expressed CYP450 isozymes (1A2, 2A6, 2B6, 2C8, 2C9, 2C19, 2D6, 3A4 and 3A5). […] In the second study, RX-5902 was incubated with pooled human liver microsomes in the presence of CYP450 isozyme-selective chemical inhibitors. The inhibitors tested were selective for 1A2, 2A6, 2B6, 2C8, 2C9, 2C19, 2D6, and 3A4/5.

CYP3A5 = CYP3A5 (Homo sapiens, UniProt P20815); assay: as above; format: in vitro ADME; settings: 30-minute incubation with expressed CYP3A5
Experimental: as §1

phospho-p68 = molecular target: T1, phospho-p68 (Homo sapiens, UniProt P17844); assay: β-catenin dependent ATPase assay; format: biochemical
T1 construct: made in house
Experimental: ATPase activity was determined by measuring the released inorganic phosphate during ATP hydrolysis using a direct colorimetric assay (Shin et al., Cancer Res., 67:7572-7578 (2007); Yang et. al., Cell, 127:139-155 (2006)). A typical ATPase assay was carried out in 50 μl reaction volumes, containing 20 mM Tris-HCl pH 7.5, 200 mM NaCl, 1 mM MgCl2, 5 mM DTT, ˜1-2 of appropriate substrate, 4 mM ATP, and 10 μl of helicase. The ATPase reactions were incubated at 37° C. for 30 minutes. After incubation, 1 ml of malachitegreen-molybdenum reagent was added to the reaction mixture, and reactions were further incubated at room temperature for exactly 5 minutes. The absorption (A) at 630 nm was then measured. The concentrations of inorganic phosphate were determined by matching the A630nm in a standard curve of A630nm vs. known phosphate concentrations. The proteins, p68 or phospho-p68, used for this assay were prepared in-house similar to the procedure reported previously (Yang et al., Protein Expr. Purif., 35:327-333 (2004)). The percentage of inhibition by defining the ATPase activity of phospho-p68 without RX-5902 as zero percent inhibition was calculated and IC50 of RX-5902 was calculated by non-linear regression analysis using Kaledia Graph software program (Synergy Software, Reading, Pa.).
The experiment was repeated at lower concentrations of RX-5902 to calculate IC50.

[1] = system: human non-small cell lung tumor xenografts (A549); assay: Non-small cell lung cancer xenograft model; format: in vivo, mice; settings: oral
Description: The efficacy of RX-5902 in human cancer xenograft mouse models is examined. Female nude mice (nu/nu, Harlan or CRL: NU(NCr)-Foxn1^nu, Charles River), 9-10 weeks old, with a body weight (BW) range of 15-30 g on day 1 of the study, are fed ad libitum water (reverse osmosis, 1 ppm C1), and NIH 31 Modified and Irradiated Lab Diet® consisting of 18.0% crude protein, 5.0% crude fat, and 5.0% crude fiber. The mice are housed on irradiated Enrich-o'Cobs™ Laboratory Animal Bedding in static microisolators on a 12-hour light cycle at 20-22° C. (68-72° F.) and 40-60% humidity. The study complies with the recommendations of the Guide for, Care and Use of Laboratory Animals with respect to restraint, husbandry, surgical procedures, feed and fluid regulation, and veterinary care.
Various human tumor cell lines (e.g., HCT116, HT29, H460, H69, Caki-1, CaSki, MiaPaca2, BxPC3 and Colo 205 cells [ATCC, Manassas, Va., USA]) are cultured according to ATCC's instruction. […]
The cells are harvested during exponential growth and re-suspended with phosphate buffered saline. Each test animal receives a subcutaneous (s.c.) injection of 5×10^6 tumor cells into the right flank and tumor growth is monitored as the average tumor size approaches the target range of 80-300 mm^3. […] Tumors and body weights are measured regularly until the study is terminated.
Tumors are measured in two dimensions using calipers, and volume is calculated using the formula: […]
Treatment efficacy is determined using data from Day 15. The MTV (n), the median tumor volume for the number of animals, n, on Day 15, is determined for each group. Percent tumor growth inhibition (% TGI) is defined as the difference between the MTV of the designated control group (vehicle administration) and the MTV of the drug-treated group, expressed as a percentage of the MTV of the control group: % TGI=[1−(MTVdrug treated/MTVcontrol)]×100 The data set for TGI analysis includes all animals in a group, except those that die due to treatment-related (TR) or non-treatment-related (NTR) causes. […]
Animals are monitored individually for tumor growth until Day 71. […]

[2] = system: pooled human liver microsomes; assay: RX-5902 metabolism in liver microsomes with CYP450 isozyme-selective chemical inhibitors; format: in vitro ADME
Experimental: as §1

T1 sequence (P17844 whole entry): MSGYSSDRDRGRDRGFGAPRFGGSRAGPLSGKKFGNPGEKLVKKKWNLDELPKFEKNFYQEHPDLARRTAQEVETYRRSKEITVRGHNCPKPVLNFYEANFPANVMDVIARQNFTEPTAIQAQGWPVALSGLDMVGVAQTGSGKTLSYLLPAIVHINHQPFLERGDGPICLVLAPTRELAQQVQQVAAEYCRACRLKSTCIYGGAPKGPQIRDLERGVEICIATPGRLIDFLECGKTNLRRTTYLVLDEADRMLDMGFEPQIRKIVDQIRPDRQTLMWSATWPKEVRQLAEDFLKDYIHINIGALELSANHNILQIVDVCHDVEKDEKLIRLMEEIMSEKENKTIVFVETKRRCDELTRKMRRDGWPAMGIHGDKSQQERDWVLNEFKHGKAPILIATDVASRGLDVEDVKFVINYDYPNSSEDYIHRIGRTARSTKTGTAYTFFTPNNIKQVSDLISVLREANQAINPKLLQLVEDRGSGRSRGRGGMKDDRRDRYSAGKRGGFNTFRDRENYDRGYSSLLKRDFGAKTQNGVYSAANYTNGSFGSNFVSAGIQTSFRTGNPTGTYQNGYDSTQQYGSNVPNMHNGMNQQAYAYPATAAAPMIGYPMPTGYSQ
CYP3A4, sequence (P08684 whole entry): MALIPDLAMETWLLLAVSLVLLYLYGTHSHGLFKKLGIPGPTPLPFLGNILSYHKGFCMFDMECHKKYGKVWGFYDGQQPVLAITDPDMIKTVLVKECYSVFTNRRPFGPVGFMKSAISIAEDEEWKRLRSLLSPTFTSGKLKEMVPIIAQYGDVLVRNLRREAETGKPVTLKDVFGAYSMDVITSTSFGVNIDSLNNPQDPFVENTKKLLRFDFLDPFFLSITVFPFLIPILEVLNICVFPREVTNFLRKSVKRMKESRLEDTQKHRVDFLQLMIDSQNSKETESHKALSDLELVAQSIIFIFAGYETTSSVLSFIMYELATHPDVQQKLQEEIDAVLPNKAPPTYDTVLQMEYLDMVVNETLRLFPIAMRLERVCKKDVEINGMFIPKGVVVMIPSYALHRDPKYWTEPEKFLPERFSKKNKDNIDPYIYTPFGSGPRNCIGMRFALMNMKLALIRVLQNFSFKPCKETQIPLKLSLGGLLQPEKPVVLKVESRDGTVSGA
CYP3A5, sequence (P20815 whole entry): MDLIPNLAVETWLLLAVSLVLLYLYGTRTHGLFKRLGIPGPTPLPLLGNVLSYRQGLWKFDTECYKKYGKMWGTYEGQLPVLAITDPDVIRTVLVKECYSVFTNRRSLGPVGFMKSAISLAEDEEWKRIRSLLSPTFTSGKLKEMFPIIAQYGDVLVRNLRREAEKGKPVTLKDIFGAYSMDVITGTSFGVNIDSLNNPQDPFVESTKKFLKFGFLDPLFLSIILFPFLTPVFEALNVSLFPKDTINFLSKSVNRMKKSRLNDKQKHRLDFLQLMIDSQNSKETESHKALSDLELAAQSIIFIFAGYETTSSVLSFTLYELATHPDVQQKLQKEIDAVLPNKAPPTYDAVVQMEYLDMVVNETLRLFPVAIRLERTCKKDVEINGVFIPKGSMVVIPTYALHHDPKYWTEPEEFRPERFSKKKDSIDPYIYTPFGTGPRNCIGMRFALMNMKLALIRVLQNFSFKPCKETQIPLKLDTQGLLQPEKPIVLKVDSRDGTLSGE

Q: `COc1cc(OC)cc(N2CCN(C(=O)Nc3nc4cc(F)ccc4nc3OC)CC2)c1` [RX-5902, 4-(3,5-dimethoxyphenyl)-N-(7-fluoro-3-methoxyquinoxalin-2-yl)piperazine-1-carboxamide] was tested. Which “loss of RX-5902” value (CYP3A4) did it give?
A: The value was 87%.

Q: And the “loss of RX-5902” value (CYP3A5)?
A: Its value is 54%.

Q: And the “β-catenin dependent ATPase activity” value (phospho-p68; 0.2 μM)?
A: The value was “largely diminished”.

Q: And the IC50 (phospho-p68; read-out: IC50 for the inhibition of β-catenin dependent ATPase activity)?
A: The IC50 was 0.061 µM.

Q: What about the TGI % ([1]; 160 mg/kg QWK) of the same compound?
A: Its TGI % is 30%*.

Q: What about the TGI % ([1]; 320 mg/kg QWK) of the same compound?
A: Its TGI % is 26%*.

Q: What about the TGI % ([1]; 600 mg/kg QWK) of the same compound?
A: Its TGI % is 26%*.

Q: What about the “inhibition of RX-5902 metabolism” value ([2]; in the presence of a CYP3A4/5-selective inhibitor (ketoconazole)) of the same compound?
A: Its value is “Marked inhibition”.

Q: And the “inhibition of RX-5902 metabolism” value ([2]; with inhibitors of the other isozymes (1A2, 2A6, 2B6, 2C8, 2C9, 2C19, 2D6))?
A: The value was “no significant inhibition”.
